This passage reports IC50 results from US12398154B2, “Azaquinazoline pan-KRas inhibitors” (Mirati Therapeutics, Inc., priority 2020, dated 2025).

One test concerns the target T1, KRas G13D (Homo sapiens, UniProt P01116, G13D).
T1 construct: Biotinylated KRas (corresponding to amino acids 1-169, produced at Accelegan Inc.); biotin (biotinylated); purchased Accelegan Inc
In words: KRas binding assay (TR-FRET displacement).

In another test the target is T2, KRas Q61H (Homo sapiens, UniProt P01116, Q61H).
T2 construct: Biotinylated KRas (corresponding to amino acids 1-169, produced at Accelegan Inc.); biotin (biotinylated); purchased Accelegan Inc
The test can be described thus: KRas binding assay (TR-FRET displacement).

The next test deals with KRas G12D (Homo sapiens, UniProt P01116, G12D). The test can be described thus: biochemical.
The target in a further test is KRas G12V (Homo sapiens, UniProt P01116, G12V). The test can be described thus: biochemical.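 Note: KRas binding measured by TR-FRET displacement at room temperature, IC50 fitted from percent of control values.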
For the next test, the target named is KRas G12R (Homo sapiens, UniProt P01116, G12R). In words: biochemical.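 Note: TR-FRET displacement assay of compound binding to KRas, read after one hour at room temperature, potency from a four-parameter fit of percent-of-control values.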
The target of the next test is KRas G12A (Homo sapiens, UniProt P01116, G12A). In words: biochemical.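 Note: binding to KRas measured by TR-FRET displacement after one hour at room temperature, IC50 from a four-parameter fit of percent-of-control values.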
The target in the next test is KRas G12S (Homo sapiens, UniProt P01116, G12S). In words: biochemical.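 Note: TR-FRET displacement binding to KRas, read after one hour incubation at room temperature, IC50 from four-parameter fit of percent of control.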
The target of the next test is KRas G12C (Homo sapiens, UniProt P01116, G12C). In words: biochemical.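 Note: binding to KRas assessed by TR-FRET displacement after one hour incubation at room temperature, potency fitted from percent-of-control values.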
A further test deals with KRas WT (Homo sapiens, UniProt P01116). The test can be described thus: biochemical.
Sequence of KRas WT (P01116 1-169 isoform P01116-2): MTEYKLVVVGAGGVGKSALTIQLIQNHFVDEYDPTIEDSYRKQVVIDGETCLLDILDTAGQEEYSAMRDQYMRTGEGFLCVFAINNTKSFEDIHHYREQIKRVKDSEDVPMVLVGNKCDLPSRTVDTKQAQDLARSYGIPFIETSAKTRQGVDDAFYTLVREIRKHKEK

Sequence of KRas G12S (P01116 1-169 isoform P01116-2 G12S): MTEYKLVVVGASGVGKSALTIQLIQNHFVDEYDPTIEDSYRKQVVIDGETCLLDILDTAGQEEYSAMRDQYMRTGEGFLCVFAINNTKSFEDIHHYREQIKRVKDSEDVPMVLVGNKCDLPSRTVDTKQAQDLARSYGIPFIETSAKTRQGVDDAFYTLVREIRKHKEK
Sequence of KRas G12D (P01116 1-169 isoform P01116-2 G12D): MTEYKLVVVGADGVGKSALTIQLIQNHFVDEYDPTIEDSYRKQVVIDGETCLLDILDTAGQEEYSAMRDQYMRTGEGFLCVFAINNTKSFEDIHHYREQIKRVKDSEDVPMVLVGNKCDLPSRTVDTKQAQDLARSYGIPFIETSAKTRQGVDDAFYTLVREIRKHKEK
Sequence of KRas G12R (P01116 1-169 isoform P01116-2 G12R): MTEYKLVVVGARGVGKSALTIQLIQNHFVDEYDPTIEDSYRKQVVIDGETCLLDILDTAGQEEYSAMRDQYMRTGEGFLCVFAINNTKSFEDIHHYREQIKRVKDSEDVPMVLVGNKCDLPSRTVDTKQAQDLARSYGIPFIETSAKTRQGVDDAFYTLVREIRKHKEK
Sequence of KRas G12A (P01116 1-169 isoform P01116-2 G12A): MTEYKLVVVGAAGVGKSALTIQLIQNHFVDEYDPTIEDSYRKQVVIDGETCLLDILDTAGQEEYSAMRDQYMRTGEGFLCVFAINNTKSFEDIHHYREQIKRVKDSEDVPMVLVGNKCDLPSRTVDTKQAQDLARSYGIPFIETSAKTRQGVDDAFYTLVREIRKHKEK
Sequence of KRas G12V (P01116 1-169 isoform P01116-2 G12V): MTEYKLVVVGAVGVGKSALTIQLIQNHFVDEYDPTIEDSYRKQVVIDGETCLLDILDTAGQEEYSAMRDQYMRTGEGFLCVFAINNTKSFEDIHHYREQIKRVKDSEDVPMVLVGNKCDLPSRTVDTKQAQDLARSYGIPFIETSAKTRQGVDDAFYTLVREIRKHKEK
T2 sequence (P01116 1-169 isoform P01116-2 Q61H): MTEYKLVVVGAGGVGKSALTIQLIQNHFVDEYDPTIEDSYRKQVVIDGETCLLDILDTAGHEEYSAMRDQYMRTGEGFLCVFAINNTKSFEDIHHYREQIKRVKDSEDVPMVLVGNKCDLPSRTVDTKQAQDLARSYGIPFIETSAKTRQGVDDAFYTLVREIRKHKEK
Sequence of KRas G12C (P01116 1-169 isoform P01116-2 G12C): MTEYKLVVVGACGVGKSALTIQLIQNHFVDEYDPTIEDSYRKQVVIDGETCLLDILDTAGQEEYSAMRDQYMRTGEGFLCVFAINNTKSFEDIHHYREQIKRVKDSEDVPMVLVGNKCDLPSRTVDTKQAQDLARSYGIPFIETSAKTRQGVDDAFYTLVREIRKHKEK
T1 sequence (P01116 1-169 isoform P01116-2 G13D): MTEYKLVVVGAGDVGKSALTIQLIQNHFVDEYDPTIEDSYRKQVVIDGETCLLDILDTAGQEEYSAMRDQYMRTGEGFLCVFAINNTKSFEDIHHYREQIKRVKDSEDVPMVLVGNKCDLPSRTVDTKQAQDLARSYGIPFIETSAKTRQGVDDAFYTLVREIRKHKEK

As for `Fc1c(-c2cccc3cccc(Cl)c23)ncc2c(N3CCCC(n4cccn4)C3)nc(OCC34CCCN3CCC4)nc12` (stereo not drawn) [Example 109, 4-(3-(1H-pyrazol-1-yl)piperidin-1-yl)-7-(8-chloronaphthalen-1-yl)-8-fluoro-2-((tetrahydro-1H-pyrrolizin-7a(5H)-yl)methoxy)pyrido[4,3-d]pyrimidine], the IC50 on KRas G13D came out at 4340 nM; on KRas Q61H it was 4940 nM; against KRas G12D it was 10.2 µM; against KRas G12V it was 7.43 µM; against KRas G12R, 4.11 µM; against KRas G12A, 4.28 µM. The 50% inhibitory concentration (IC50) was found to be 7.39 µM on KRas G12S, 4.25 µM against KRas G12C and 3.99 µM against KRas WT.

With `O=C1NCC(CNc2nc(OCC34CCCN3CCC4)nc3c(F)c(-c4cccc5cccc(F)c45)ncc23)O1` (stereo not drawn) [Example 110, 5-(((8-fluoro-7-(8-fluoronaphthalen-1-yl)-2-((tetrahydro-1H-pyrrolizin-7a(5H)-yl)methoxy)pyrido[4,3-d]pyrimidin-4-yl)amino)methyl)oxazolidin-2-one], the IC50 at KRas G13D was 9330 nM; at KRas Q61H, 10100 nM; at KRas G12D it was 26.9 µM; on KRas G12V, 3.97 µM; against KRas G12R, 2.48 µM; against KRas G12A, 9.28 µM. For the same molecule, the IC50 on KRas G12S came out at 4.37 µM; at KRas G12C, 5.22 µM; on KRas WT, 8.81 µM.

For `C[C@@H]1C[C@@H](O)CN(c2nc(OCC34CCCN3CCC4)nc3c(F)c(-c4cccc5cccc(F)c45)ncc23)C1` [Example 112, (3R,5R)-1-(8-fluoro-7-(8-fluoronaphthalen-1-yl)-2-((tetrahydro-1H-pyrrolizin-7a(5H)-yl)methoxy)pyrido[4,3-d]pyrimidin-4-yl)-5-methylpiperidin-3-ol], the half-maximal inhibitory concentration (IC50) came to 13300 nM on KRas G13D; 20700 nM at KRas Q61H; 37.5 µM against KRas G12D; 25.9 µM at KRas G12V; 28.1 µM against KRas G12R; 25.3 µM on KRas G12A. For the same molecule, the concentration for half-maximal inhibition (IC50) was found to be 31 µM against KRas G12S, 27.5 µM at KRas G12C and 36.6 µM on KRas WT.

Take `OCC1CCCN(c2nc(OCC34CCCN3CCC4)nc3c(F)c(-c4cccc5cccc(F)c45)ncc23)C1` (stereo not drawn) [Example 113, (1-(8-fluoro-7-(8-fluoronaphthalen-1-yl)-2-((tetrahydro-1H-pyrrolizin-7a(5H)-yl)methoxy)pyrido[4,3-d]pyrimidin-4-yl)piperidin-3-yl)methanol]: the IC50 is 12100 nM at KRas G13D; 12200 nM at KRas Q61H; 14.2 µM against KRas G12D; 12 µM against KRas G12V; 16 µM at KRas G12R; 9.48 µM against KRas G12A. Moreover, the half-inhibitory concentration (IC50) came out at 10.6 µM against KRas G12S, 7.11 µM on KRas G12C and 8.47 µM at KRas WT.

Regarding `Fc1c(-c2cccc3cccc(F)c23)ncc2c(N3CCCC4(CC4)C3)nc(OCC34CCCN3CCC4)nc12` [Example 114, 8-fluoro-7-(8-fluoronaphthalen-1-yl)-4-(5-azaspiro[2.5]octan-5-yl)-2-((tetrahydro-1H-pyrrolizin-7a(5H)-yl)methoxy)pyrido[4,3-d]pyrimidine], the IC50 on KRas G13D was determined as 29900 nM; on KRas Q61H, 43300 nM; against KRas G12D it was 4.38 µM; at KRas G12V, 2.86 µM; against KRas G12R it was 3.75 µM; at KRas G12A, 2.64 µM. In addition, the IC50 turned out to be 2.81 µM at KRas G12S, 2.48 µM against KRas G12C and 2.71 µM against KRas WT.

Consider `Fc1c(-c2cccc3cccc(F)c23)ncc2c(NCCc3c[nH]nn3)nc(OCC34CCCN3CCC4)nc12` [Example 115, N-(2-(1H-1,2,3-triazol-4-yl)ethyl)-8-fluoro-7-(8-fluoronaphthalen-1-yl)-2-((tetrahydro-1H-pyrrolizin-7a(5H)-yl)methoxy)pyrido[4,3-d]pyrimidin-4-amine], for which the IC50 came out at 21200 nM on KRas G13D; 22300 nM on KRas Q61H; 30.9 µM on KRas G12D; 5.8 µM against KRas G12V; 4.64 µM on KRas G12R; 10.5 µM against KRas G12A. Besides, the half-maximal inhibitory concentration (IC50) on KRas G12S amounted to 10.9 µM; at KRas G12C it was 6.56 µM; at KRas WT, 11.6 µM.

For `CC1CC(O)CCN(c2nc(OCC34CCCN3CCC4)nc3c(F)c(-c4cccc5cccc(F)c45)ncc23)C1` (stereo not drawn) [Example 116, 1-(8-fluoro-7-(8-fluoronaphthalen-1-yl)-2-((tetrahydro-1H-pyrrolizin-7a(5H)-yl)methoxy)pyrido[4,3-d]pyrimidin-4-yl)-6-methylazepan-4-ol], the IC50 at KRas G13D stood at 2700 nM; on KRas Q61H it was 5200 nM; on KRas G12D it was 3.31 µM; at KRas G12V, 4.09 µM; against KRas G12R it was 6.27 µM; on KRas G12A it was 2.74 µM. For the same molecule, the figures for the IC50 against KRas G12S, at KRas G12C and at KRas WT were 3.59 µM, 4.41 µM and 3.45 µM, respectively.

On to `OCC1CN(c2nc(OCC34CCCN3CCC4)nc3c(F)c(-c4cccc5cccc(F)c45)ncc23)CCC1O` (stereo not drawn) [Example 117, 1-(8-fluoro-7-(8-fluoronaphthalen-1-yl)-2-((tetrahydro-1H-pyrrolizin-7a(5H)-yl)methoxy)pyrido[4,3-d]pyrimidin-4-yl)-3-(hydroxymethyl)piperidin-4-ol], for which the IC50 was found to be 5680 nM at KRas G13D; 8240 nM at KRas Q61H; 32 µM against KRas G12D; 11.1 µM on KRas G12V; 10.1 µM against KRas G12R; 9.15 µM against KRas G12A. In addition, the half-maximal inhibitory concentration (IC50) against KRas G12S was determined as 11 µM; against KRas G12C, 6.57 µM; against KRas WT, 9.86 µM.

With `Fc1c(-c2cccc3cccc(F)c23)ncc2c(NCCCn3ccnn3)nc(OCC34CCCN3CCC4)nc12` [Example 118, N-(3-(1H-1,2,3-triazol-1-yl)propyl)-8-fluoro-7-(8-fluoronaphthalen-1-yl)-2-((tetrahydro-1H-pyrrolizin-7a(5H)-yl)methoxy)pyrido[4,3-d]pyrimidin-4-amine], the IC50 on KRas G13D was determined as 8810 nM; on KRas Q61H it was 14000 nM; on KRas G12D it was 16.1 µM; on KRas G12V, 7.53 µM; against KRas G12R it was 11.3 µM; at KRas G12A, 8.14 µM. Further, the IC50 at KRas G12S turned out to be 6.24 µM; at KRas G12C it was 7.45 µM; at KRas WT, 8.55 µM.

For the molecule `Fc1c(-c2cccc3cccc(F)c23)ncc2c(NCCCn3cnnn3)nc(OCC34CCCN3CCC4)nc12` [Example 119, N-(3-(1H-tetrazol-1-yl)propyl)-8-fluoro-7-(8-fluoronaphthalen-1-yl)-2-((tetrahydro-1H-pyrrolizin-7a(5H)-yl)methoxy)pyrido[4,3-d]pyrimidin-4-amine], the IC50 worked out at 17200 nM on KRas G13D; 27600 nM at KRas Q61H; 31.9 µM on KRas G12D; 18 µM on KRas G12V; 15.6 µM at KRas G12R; 14.4 µM on KRas G12A. Further, the concentration for half-maximal inhibition (IC50) against KRas G12S was 14.6 µM; on KRas G12C, 11.6 µM; on KRas WT, 15.7 µM.

For `Oc1cccc2c1CN(c1nc(OCC34CCCN3CCC4)nc3c(F)c(-c4cccc5cccc(F)c45)ncc13)C2` [Example 120, 2-(8-fluoro-7-(8-fluoronaphthalen-1-yl)-2-((tetrahydro-1H-pyrrolizin-7a(5H)-yl)methoxy)pyrido[4,3-d]pyrimidin-4-yl)isoindolin-4-ol], the half-maximal inhibitory concentration (IC50) at KRas G13D was no less than 100000 nM; at KRas Q61H, no less than 100000 nM; on KRas G12D it was no less than 100 µM; against KRas G12V, no less than 100 µM; on KRas G12R, no less than 100 µM; against KRas G12A it was 33.3 µM. Moreover, the IC50 at KRas G12S was found to be 85.3 µM; against KRas G12C, 19.8 µM; on KRas WT it was 34.1 µM.

As for `Fc1c(-c2cccc3cccc(F)c23)ncc2c(NCc3nnc4ncccn34)nc(OCC34CCCN3CCC4)nc12` [Example 121, N-([1,2,4]triazolo[4,3-a]pyrimidin 3 ylmethyl) 8-fluoro-7-(8-fluoronaphthalen-1-yl)-2-((tetrahydro-1H-pyrrolizin-7a(5H)-yl)methoxy)pyrido[4,3-d]pyrimidin-4-amine], the concentration for half-maximal inhibition (IC50) is 17300 nM at KRas G13D; 25400 nM on KRas Q61H; 42.8 µM against KRas G12D; 6.64 µM on KRas G12V; 12.3 µM against KRas G12R; 15.5 µM against KRas G12A. The IC50 against KRas G12S was 18.6 µM; at KRas G12C, 9.1 µM; at KRas WT, 13 µM.

Consider `Fc1c(-c2cccc3cccc(F)c23)ncc2c(NCc3nnc4cccnn34)nc(OCC34CCCN3CCC4)nc12` [Example 122, N-([1,2,4]triazolo[4,3-b]pyridazin-3-ylmethyl)-8-fluoro-7-(8-fluoronaphthalen-1-yl)-2-((tetrahydro-1H-pyrrolizin-7a(5H)-yl)methoxy)pyrido[4,3-d]pyrimidin-4-amine], for which the half-inhibitory concentration (IC50) is 86400 nM on KRas G13D; 88200 nM on KRas Q61H; no less than 100 µM at KRas G12D; 6.91 µM at KRas G12V; 12.4 µM on KRas G12R; 14.4 µM against KRas G12A. In addition, the IC50 on KRas G12S is 21.7 µM; on KRas G12C it was 3.47 µM; at KRas WT, 26 µM.
